Patent US10640527B2, “Mesitylene-cored amphiphiles and uses thereof” (Industry-University Cooperation Foundation Hanyang …, priority 2016, dated 2020)
Where “and” joins values, the source holds several entries; their conditions need not be identical. Equal values may be shown once.

How the values were obtained:
[1] = target: T1, melibiose permease (MelBSt) (Salmonella typhimurium, UniProt P30878); assay: MelBSt extraction from membranes and thermal stability, SDS-PAGE and Western blotting; format: biochemical; conditions: 1.5 wt %, 90 minutes; for MelBSt protein extraction efficiency compared with DDM: 45° C.; for MelBSt extraction ability compared with DDM: 55° C.
T1 construct: made in house; host or cells: DW2 cells (ΔmelB and ΔlacZY), Salmonella typhimurium DW2
Experimental: An experiment for measuring the structural stability of Salmonella typhimurium melibiose permease (MelBSt) according to MGAs in an aqueous solution was performed. After MelBSt proteins were extracted from a membrane using MGAs or DDM, the amount and structure of extracted proteins were analyzed by SDS-PAGE and western blotting. The concentration of used amphiphiles was 1.5 wt %, and proteins were extracted at four different temperatures of 0, 45, 55 and 65° C. to evaluate both the protein extraction efficiency and stabilizing ability of a compound. A membrane sample which had not been treated with MGAs or DDM was used as a control group.
Specifically, MelBSt stability solubilized in DDM or MGAs was evaluated according to a method described in 2010 in a research article (P. S. Chae et al., Nat. Methods 2010, 7, 1003-1008.) by the inventors of the present invention. Proteins (MelBSt) were produced using plasmid pK95ΔAHB/WT MelBSt/CH10 encoding the wild-type MelB with a 6-His tag at the C-terminus and Salmonella typhimurium DW2 cells (ΔmelB and ΔlacZY). Cell growth and membrane preparation was performed according to a method described in a research article (Nat. Commun. 2014, 5, 3009) by A. S. Ethayathulla, et al. A protein assay was carried out using a Micro BCA kit (Thermo Scientific, Rockford, Ill.). In order to measure protein solubilization, a membrane sample (final protein concentration was 10 mg/mL) containing MelBSt was incubated with a solubilization buffer (20 mM sodium phosphate, pH 7.5, 200 mM NaCl, 10% glycerol and 20 mM melibiose) and 1.5% (w/v) DDM or MGA (MGA-C10, MGA-C11, MGA-C12, MGA-C13, MGA-C14 or MGA-C15) at four different temperatures of 0, 45, 55 and 65° C. for 90 minutes. After ultracentrifugation at 355,590 g in a Beckman Optima™ MAX Ultracentrifuge using a TLA-100 rotor for 45 min at 4° C., 20 μg of a protein was separated by SDS-16% PAGE and immunoblotted with a Penta-His-HRP antibody (Qiagen, Germantown, Md.). MelBSt was measured by an ImageQuant LAS 4000 Biomolecular Imager (GE Healthcare Life Sciences) using a SuperSignal West Pico chemiluminescent substrate.

[2] = Critical micelle concentration by fluorophore encapsulation using diphenylhexatriene (DPH); format: physicochemical; conditions: aqueous solution
Experimental: A method of measuring a CMC is not particularly limited, and those methods widely known in the related field may be used. For example, a CMC may be measured by a fluorophore encapsulation method using diphenylhexatriene (DPH).
(§1) Specifically, a CMC was measured by a fluorophorescent encapsulation method using diphenylhexatriene (DPH) and an Rh of a micelle formed by each formulation (1.0 wt %) was measured using a dynamic light scattering (DLS) experiment.

[3] = Hydrodynamic radius / size distribution of micelles by dynamic light scattering (DLS); format: physicochemical; conditions: 1.0 wt % amphiphile
Experimental: A method of measuring a radius of the micelle is not particularly limited, and those methods widely known in the related field may be used, for example, a dynamic light scattering (DLS) experiment may be used for measurement.
as §1

[4] = target: T2, human β2-adrenergic receptor (β2AR) (Homo sapiens, UniProt P07550); assay: Size exclusion chromatography (SEC) of β2AR solubilized in amphiphile; conditions: for SEC profile of solubilized β2AR: amphiphile-free running buffer
Experimental: A size exclusion chromatography (SEC) experiment was conducted to determine the β2AR crystallization effect and β2AR stability preservation effect by MGA-C13 or DDM.
Specifically, β2AR purified by 0.1% DDM was mixed with a DDM or MGA-C13 buffer (20 mM HEPES pH 7.5, 100 mM NaCl, 0.2% of each amphiphile) and incubated for 30 minutes. The sample was applied to a Superdex-200 10/300 GL column (GE Healthcare Life Sciences) at a rate of 0.5 ml/min, fluorescence was recorded at 345 nm, and an […] wavelength was 295 nm. A running buffer contained 20 mM HEPES (pH 7.5) and 100 mM NaCl, and contained each amphiphile (DDM or MGA-C13) or not.

[5] = test system: leucine transporter (LeuT); assay: LeuT long-term stability, [3H]-Leu binding by scintillation proximity assay (SPA); format: biochemical, Aquifex aeolicus; conditions: after 12 days of incubation at room temperature
Experimental: An experiment for measuring the structural stability of LeuT proteins according to MGAs (MGA-C11, MGA-C12, MGA-C13, MGA-C14 and MGA-C15) was performed. Each amphiphile was used at a concentration of (a) CMC+0.04 wt % or (b) CMC+0.2 wt %, a ligand-binding activity of LeuT was measured by scintillation proximity assay (SPA) using [^3H]-Leucine. The measurement was performed at regular intervals at room temperature during 12 days of incubation.
Specifically, a thermophilic bacteria Aquifex aeolicus-derived wild type LeuT was purified using a previously described method (Nature, G. Deckert et al., 1998, 392, 353-358). To sum up, the LeuT was expressed in E. coli C41 (DE3) cultured in a lysogeny broth medium supplemented with 0.1 mg/ml ampicillin. Expression of proteins was induced by adding isopropyl β-D-thiogalactopyranoside to a final concentration of 0.1 mM.
A cell membrane was separated from a crushed cell (Constant Systems Homogenizers, Kennesaw, Ga.), and solubilized in 1% (w/v) n-dodecyl-β-D-maltopyranoside (DDM; Affymetrix, Santa Clara, Calif.). After solubilization, LeuT was fixed in a Ni^2+-NTA resin (Life Technologies, Denmark), and eluted in 20 mM Tris-HCl (pH 7.5), 199 mM KCl, 1 mM NaCl, 0.05% (w/v) DDM and 300 mM imidazole. Thereafter, purified LeuT (about 1.5 mg/ml) was diluted tenfold with a buffer supplemented with MGA (MGA-C11, MGA-C12, MGA-C13, MGA-C14 or MGA-C15) or DDM to the final concentration of CMC+0.04% (w/v) or CMC+0.2% (w/v) while excluding DDM and imidazole from the above-described buffers. Protein samples were stored at room temperature for 12 days, and protein activity was determined by measuring [^3H]-Leu binding by SPA at a specified time. SPA was carried out using 450 mM NaCl and buffers containing each MGA, and a SPA reaction was performed in the presence of 20 nM [^3H]-Leu and 1.25 mg/ml copper chelate (His-Tag) YSi beads (Perkin Elmer, Denmark). [^3H]-Leu binding was measured using a MicroBeta liquid scintillation counter (Perkin Elmer).

[6] = target: T2, human β2-adrenergic receptor (β2AR); assay: β2AR stability, [3H]-dihydroalprenolol radioligand binding; format: biochemical; conditions: after three days of incubation at room temperature, CMC+0.2 wt %
Experimental: The activity of a receptor (β2AR) purified by DDM or MGAs (MGA-C12, MGA-C13 and MGA-C14) was measured by binding of [^3H]-dihydroalprenolol ([^3H]-DHA).
Specifically, the following method was used in a radioligand binding experiment. β2AR was purified by 0.1% DDM. The DDM-purified β2AR was diluted with a buffer solution containing each amphiphile (DDM or an MGA) such that the final concentration of the amphiphile was CMC+0.2 wt %. β2AR dissolved in each amphiphile was stored at room temperature for three days, and incubated at room temperature for 30 minutes using 10 nM-radioactive [^3H]-dihydroalprenolol (DHA) to measure ligand binding thereof at regular intervals. The mixture was loaded into a G-50 column, and passing liquid was collected using a binding buffer (20 mM HEPES pH 7.5, 100 mM NaCl supplemented with 0.5 mg/ml BSA) and 15 ml of a scintillation fluid was added thereto. Receptor-coupled [^3H]-DHA was measured by a scintillation counter (Beckman). Non-specific binding of [^3H]-DHA was measured by adding 1 μM of alprenolol (Sigma) in the same reaction. Binding of [^3H]-DHA was measured by column graphs.

[7] = target: T3, uric acid-xanthine/H+ symporter (UapA) (Emericella nidulans, UniProt Q07307, G411V); assay: UapA structural (thermal) stability, CPM assay; format: biochemical, Aspergillus nidulans
T3 construct: GFP; made in house; host or cells: Saccharomyces cerevisiae FGY217
Experimental: An experiment for measuring the structural stability of uric acid-xanthine/H^+ symporter (UapA) solubilized in MGAs in an aqueous solution was performed. The structural stability of UapA was measured using a CPM assay, and was measured at MGAs and DDM concentrations of (a) CMC+0.04 wt %, or (b) CMC+0.2 wt %.
Specifically, a UapA protein is a uric acid-xanthine/H^+ symporter in Aspergillus nidulans. Protein stability was measured by fluorescence spectroscopy using N-[4-(7-diethylamino-4-methyl-3-coumarinyl)phenyl]maleimide (CPM) which is a sulfhydryl-specific fluorophore. A free sulfhydryl group of a cysteine residue is in the interior of a protein, but becomes accessible to a solvent upon protein unfolding. CPM becomes fluorescent by a reaction with the free thiol, and thus provides as a protein unfolding sensor. In order to measure thermal stability, first, UapAG411V1-11 was expressed in the Saccharomyces cerevisiae FGY217 strain by fusion with GFP, and separated in a sample buffer (20 mM Tris (pH 7.5), 150 mM NaCl, 0.03% DDM and 1 mM xanthine) according to a method described in a research article (Mol. Membr. Biol. 2013, 30, 32-42) by J. Leung et al. A UapA protein was concentrated to about 10 mg/ml using a 100 kDa molecular weight cut-off filter (Millipore). The concentrated protein was diluted to a ratio of 1:150 with each buffer including DDM or MGA (MGA-C10, MGA-C11, MGA-C12, MGA-C13, MGA-C14 or MGA-C15) at a concentration of CMC+0.04 wt % or CMC+0.2 wt % in a Greiner 96-well plate. A CPM dye (Invitrogen) stored in DMSO (Sigma) was diluted with a dye buffer (20 mM Tris (pH 7.5), 150 mM NaCl, 0.03% DDM and 5 mM EDTA), and 3 μl of the diluted dye was added to each protein sample. The reaction mixture was incubated at 40° C. for 120 minutes. Fluorescence emission was monitored using a microplate spectrofluorometer, with an excitation wavelength at 387 nm and an emission wavelength at 463 nm. Relative maximum fluorescence was used to calculate a percentage of relative folded protein remaining after 120 minutes at 40° C. Relative unfolded proteins were plotted against time using GraphPad Prism.
Specifically, a UapA stabilization effect was evaluated by the same method as in Experimental Example 2 using MGA-C13, MGA-C14, MNG-3 or DDM at a concentration of (a) CMC+0.04 wt % or (b) CMC+0.2 wt %.

[8] = Water-solubility; format: physicochemical; conditions: in water

T2 sequence (P07550 whole entry): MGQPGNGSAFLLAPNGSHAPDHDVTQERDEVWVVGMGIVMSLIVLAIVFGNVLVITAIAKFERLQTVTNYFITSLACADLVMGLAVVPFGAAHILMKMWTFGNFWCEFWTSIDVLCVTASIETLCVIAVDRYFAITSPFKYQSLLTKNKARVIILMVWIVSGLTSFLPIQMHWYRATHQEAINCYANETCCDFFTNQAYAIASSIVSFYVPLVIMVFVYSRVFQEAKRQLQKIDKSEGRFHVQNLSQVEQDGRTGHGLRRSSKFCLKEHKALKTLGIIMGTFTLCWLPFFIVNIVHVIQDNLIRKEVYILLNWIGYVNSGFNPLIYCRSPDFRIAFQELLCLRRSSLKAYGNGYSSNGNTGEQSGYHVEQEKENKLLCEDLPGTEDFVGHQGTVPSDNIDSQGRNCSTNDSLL
T1 sequence (P30878 whole entry): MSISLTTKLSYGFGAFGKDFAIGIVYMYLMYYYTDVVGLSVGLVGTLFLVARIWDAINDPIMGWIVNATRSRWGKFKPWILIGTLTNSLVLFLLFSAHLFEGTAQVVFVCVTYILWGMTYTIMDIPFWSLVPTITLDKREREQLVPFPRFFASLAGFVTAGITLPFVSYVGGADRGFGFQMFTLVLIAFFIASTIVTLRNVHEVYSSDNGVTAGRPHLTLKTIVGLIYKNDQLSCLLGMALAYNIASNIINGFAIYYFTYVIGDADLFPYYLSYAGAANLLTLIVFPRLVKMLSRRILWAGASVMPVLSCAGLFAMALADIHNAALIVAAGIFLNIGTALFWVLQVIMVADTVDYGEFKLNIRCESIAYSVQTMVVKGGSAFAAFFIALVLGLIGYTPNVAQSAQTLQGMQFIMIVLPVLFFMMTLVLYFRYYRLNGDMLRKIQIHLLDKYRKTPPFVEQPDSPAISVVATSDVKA
T3 sequence (Q07307 12-574 G411V): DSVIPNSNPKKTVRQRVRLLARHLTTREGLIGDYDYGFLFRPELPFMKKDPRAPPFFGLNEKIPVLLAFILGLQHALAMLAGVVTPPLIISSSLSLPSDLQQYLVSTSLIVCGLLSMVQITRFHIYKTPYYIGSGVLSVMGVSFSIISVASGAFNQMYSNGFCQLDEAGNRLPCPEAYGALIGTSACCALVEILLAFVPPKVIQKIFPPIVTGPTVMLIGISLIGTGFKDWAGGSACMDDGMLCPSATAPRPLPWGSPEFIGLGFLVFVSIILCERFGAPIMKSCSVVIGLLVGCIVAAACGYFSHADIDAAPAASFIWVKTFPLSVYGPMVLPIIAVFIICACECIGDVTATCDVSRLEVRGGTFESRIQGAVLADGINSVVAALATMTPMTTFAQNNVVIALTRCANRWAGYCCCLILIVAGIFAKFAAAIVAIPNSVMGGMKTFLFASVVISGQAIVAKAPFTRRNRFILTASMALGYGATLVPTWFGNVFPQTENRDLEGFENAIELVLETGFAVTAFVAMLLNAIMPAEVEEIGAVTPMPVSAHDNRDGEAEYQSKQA

Row | Structure (SMILES) | MelBSt protein extraction efficiency ([1]; 0° C. and 45° C.) | MelBSt protein extracted ([1]; 55° C. or more) | CMC [2] | CMC (wt %) [2] | Rh (nm), hydrodynamic radius of micelle [3] | SEC profile of solubilized β2AR [4] | LeuT ligand-binding activity retained, % of initial activity [5] | β2AR receptor (ligand binding) activity retained [6] | MelBSt protein extraction efficiency compared with DDM [1] | MelBSt extraction ability compared with DDM [1] | size of protein-detergent complexes (PDCs) with β2AR ([4]; SEC, amphiphile-containing buffer, 0.2% amphiphile) | UapA stabilization effect compared with MNG-3 ([7]; CMC+0.04 wt % or CMC+0.2 wt %, FIG. 25) | effect in maintaining folded UapA, ranking among MGAs ([7]; CMC+0.2 wt %, 40° C., 120 minutes) | water-solubility [8]
1 | CCCCCCCCCCCCO[C@@H]1O[C@H](CO)[C@@H](O[C@H]2O[C@H](CO)[C@@H](O)[C@H](O)[C@H]2O)[C@H](O)[C@H]1O [DDM, n-dodecyl-β-D-maltopyranoside, reference compound] | high protein extraction efficiency | almost no protein was observed | ~170 µM | ~0.0087 wt % | 3.4 nm and 3.4 ± 0.02 nm | largely decreased monodispersed peak intensity (˜13 mL) and a new broad aggregate peak (˜10 mL) | ~40% | ~15% | – | – | – | – | – | –
2 | CCCCCCCCCCCCCC(CO[C@@H]1OC(CO)[C@@H](O)C(O)C1O)(CO[C@@H]1OC(CO)[C@@H](O)C(O)C1O)Cc1cc(CC(CCCCCCCCCCCCC)(CO[C@@H]2OC(CO)[C@@H](O)C(O)C2O)CO[C@@H]2OC(CO)[C@@H](O)C(O)C2O)cc(CC(CCCCCCCCCCCCC)(CO[C@@H]2OC(CO)[C@@H](O)C(O)C2O)CO[C@@H]2OC(CO)[C@@H](O)C(O)C2O)c1 (some centres unmarked) [MGA-C13] | – | – | ~3 µM | ~0.0006 wt % | 3.2 ± 0.03 nm | almost no change | – | – | same level of protein extraction efficiency as DDM | higher MelBSt extraction ability than DDM | smaller protein-detergent complexes (PDCs) than DDM | far greater UapA stabilization effect than MNG-3 | had the highest effect | –
3 | CCCCCCCCCCCCCCCC(CO[C@@H]1OC(CO)[C@@H](O)C(O)C1O)(CO[C@@H]1OC(CO)[C@@H](O)C(O)C1O)Cc1cc(CC(CCCCCCCCCCCCCCC)(CO[C@@H]2OC(CO)[C@@H](O)C(O)C2O)CO[C@@H]2OC(CO)[C@@H](O)C(O)C2O)cc(CC(CCCCCCCCCCCCCCC)(CO[C@@H]2OC(CO)[C@@H](O)C(O)C2O)CO[C@@H]2OC(CO)[C@@H](O)C(O)C2O)c1 (some centres unmarked) [MGA-C15] | – | – | ~1.5 µM | ~0.0003 wt % | 3.6 ± 0.02 nm | – | – | – | same level of protein extraction efficiency as DDM | higher MelBSt extraction ability than DDM | – | – | – | ≥ 20%
